Assay [1] relates to inosine monophosphate dehydrogenase (IMP DH). Conditions: cited from earlier work.
The next assay relates to Th1 and Th2 responses. Briefly: Modulation of Th1 and Th2 responses at administered dose. The format is in vivo. The text has this:
The effects of 2-β-D-ribofuranosylthiazole-4-carboxamide (Tiazofurin), a synthetic C-nucleoside analogue, on GTP levels supports this view. Tumor cells are characterized by high levels of inosine monophosphate dehydrogenase (IMP DH) activity, and it is known that IMP DH is the rate-limiting enzyme of GTP biosynthesis. Weber, G., IMP Dehydrogenase and GTP as Targets in Human Leukemia Treatment. Adv. Exp. Med. Biol. 309B:287-292 (1991). […] Weber, G., Critical Issues in Chemotherapy with Tiazofurin, Adv. Enzyme Regul. 29:75-95 (1989). Typical initial doses of Tiazofurin are about 4,400 mg/m^2, with consolidation doses of about 1100 to 3300 mg/m^2. […] In one aspect of the present invention it is contemplated that much smaller doses of Tiazofurin, in the range of 1/10th to one-half that set forth above, would be sufficient to specifically suppress either a Th1 response or a Th2 response without greatly reducing the other response.
The effects of 1β-D-ribofuranosyl-1,2,4-triazole-3-carboxamide (Ribavirin) also supports the present theory. […] Yamada, Y. et al., Action of the Active Metabolites of Tiazofurin and Ribavirin on Purified IMP Dehydrogenase, Biochem. 27:2193-2196 (1988). Ribavirin proceeds under a different mechanism than Tiazofurin in inhibiting IMP DH, however, acting on a different site on the enzyme molecule. Ribavirin is converted to its active metabolite, ribavirin-monophosphate (RMP), which inhibits the enzyme at the IMP-XMP site of IMP DH. As with Tiazofurin, the affinity of Ribavirin's active form to the enzyme is higher than that of the natural metabolite.
In another aspect of the invention, an abnormality reflected in increased response in one group of cytokines is treated by administering a nucleoside or other compound that increases response in another group of cytokines. Thus, for example, a common rapid onset type of allergy results in an abnormally elevated Th2 response.
It is also contemplated that an abnormality reflected in increased response in one group of cytokines can be treated by administering a nucleoside that increases response in another group of cytokines.

The subject of another assay is guanine nucleotide pools. Conditions: cited from earlier work.
A further assay relates to tumors. Conditions: in vivo; cited from earlier work.
The mark [2] stands for this setting: approximately 600 to 1000 mg/day.

Structures are written as SMILES. Entries after “also recorded” stand apart in the source; their conditions may differ.

On to `NC(=O)c1ncn([C@@H]2O[C@H](CO)[C@@H](O)[C@H]2O)n1` [Ribavirin, 1β-D-ribofuranosyl-1,2,4-triazole-3-carboxamide], for which, in assay [1], the “IMP DH activity” value is “inhibit IMP DH”. Moreover, in the assay on Th1 and Th2 responses (setting [2]), the Th1 response result is “promotes a Th1 response; also recorded: Th1 response is induced” and the Th2 response result is recorded as “suppresses a Th2 response; also recorded: Th2 response is suppressed”. In addition, the Th1 response entry in the assay on Th1 and Th2 responses (low dosages of about 500 mg/day to about 1,000 mg/day) is recorded as “increases Th1 response”. Moreover, in the assay with Th1 and Th2 responses (relatively high doses, approximately 2200 mg/m^2 or about 1200-1500 mg/day for an adult), the “Th1 and Th2 responses” value was “both Th1 and Th2 responses are inhibited”.

Turning to `NC(=O)c1csc([C@@H]2O[C@H](CO)[C@@H](O)[C@H]2O)n1` [Tiazofurin, 2-β-D-ribofuranosylthiazole-4-carboxamide], the “IMP DH activity” value in assay [1] is “selectively block IMP DH activity”. Further, the “Th1 and Th2 responses” value in the assay on Th1 and Th2 responses (Tiazofurin initial doses about 4,400 mg/m^2, consolidation doses about 1100 to 3300 mg/m^2) was “greatly reduced”. Further, the guanine nucleotide pools result in the assay with guanine nucleotide pools is recorded as “deplete guanine nucleotide pools”. Besides, the tumor remission result in the assay with tumors is “forces various tumors into remission”.

These data come from patent US6423695B1, “Cytokine related treatments of disease” (Ribapharm, Inc., priority 1998, dated 2002).
